Data taken from patent US8748440B2 (Exelixis, Inc., priority 2002, dated 2014).

Target: T1, FXR (CMX-hFXR) (Homo sapiens, UniProt Q96RI1)
T1 construct: expressed in transfected cells; host or cells: CV-1 African Green Monkey Kidney cells
T1 sequence (Q96RI1 1-472 isoform Q96RI1-2): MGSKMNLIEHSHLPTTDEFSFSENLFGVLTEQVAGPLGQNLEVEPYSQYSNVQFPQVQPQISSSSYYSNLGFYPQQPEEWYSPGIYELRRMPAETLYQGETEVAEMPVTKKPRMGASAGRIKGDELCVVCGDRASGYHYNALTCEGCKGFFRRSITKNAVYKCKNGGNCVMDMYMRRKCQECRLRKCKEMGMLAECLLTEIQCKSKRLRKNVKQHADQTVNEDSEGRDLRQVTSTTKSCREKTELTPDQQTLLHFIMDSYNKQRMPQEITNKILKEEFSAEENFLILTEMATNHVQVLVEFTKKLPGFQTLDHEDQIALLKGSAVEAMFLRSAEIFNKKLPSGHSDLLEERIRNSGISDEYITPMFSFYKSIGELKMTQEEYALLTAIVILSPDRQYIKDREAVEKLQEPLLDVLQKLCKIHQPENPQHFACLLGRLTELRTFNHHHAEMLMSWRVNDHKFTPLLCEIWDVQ
T1 sequence (P19793 1-462 partner): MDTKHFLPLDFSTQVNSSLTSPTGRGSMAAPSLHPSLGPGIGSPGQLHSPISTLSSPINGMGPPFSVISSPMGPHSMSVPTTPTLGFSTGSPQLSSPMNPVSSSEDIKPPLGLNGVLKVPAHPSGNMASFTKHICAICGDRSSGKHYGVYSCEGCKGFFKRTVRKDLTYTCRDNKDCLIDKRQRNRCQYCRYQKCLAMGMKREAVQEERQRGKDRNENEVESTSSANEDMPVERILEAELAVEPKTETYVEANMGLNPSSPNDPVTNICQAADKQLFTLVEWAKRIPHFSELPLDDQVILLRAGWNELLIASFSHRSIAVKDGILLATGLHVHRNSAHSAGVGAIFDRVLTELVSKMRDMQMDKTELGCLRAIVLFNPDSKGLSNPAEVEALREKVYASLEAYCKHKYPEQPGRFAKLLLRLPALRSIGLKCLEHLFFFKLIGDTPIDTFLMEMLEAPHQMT
Assay: FXR co-transfection assay (FXR/ECREx7)
Format: cell-based
Conditions: for EC50: CV-1 cells, agonist mode; for Emax: relative to maximum response of chenodeoxycholic acid (CDCA), read-out: % efficacy
Protocol: The basic co-transfection protocol for measuring FXR activity is as follows. CV-1 African Green Monkey Kidney cells are plated 24 hours before transfection to achieve approximately 70-80 percent confluency. Cells are transfected with CMX-hFXR, CMX-RXRα, Luc12 reporter (ECREx7-Tk-Luciferase), and a CMX-β-Galactosidase expression vector (See WO 00/76523). The transfection reagent used is DOTAP (Boehringer Mannheim). Cells are incubated with the DOTAP/DNA mixture for 5 hours after which the cells are harvested and plated onto either 96 well or 384 well plates containing the appropriate concentration of test compound. The assay is allowed to continue for an additional 18-20 hours, after which the cells are lysed, with lysis buffer (1% triton X 100, 10% glycerol, 5 mM Dithiothreitol, 1 mM EGTA, 25 mM Tricine, pH 7.8) and the luciferase activity is measured in the presence of Luciferase assay buffer (0.73 mM ATP, 22.3 mM Tricine, 0.11 mM EGTA, 0.55 mM Luciferin, 0.15 mM Coenzyme A, 0.5 mM HEPES, 10 mM Magnesium sulphate) on a standard luminometer plate reader (PE Biosystems, NorthStar Reader).
Both the FXR/ECREx7 co-transfection assay (Example 15) and the TR-FRET assay (Example 16) can be used to establish the EC50/IC50 values for potency and percent activity or inhibition for efficacy. Efficacy defines the activity of a compound relative to a high control (chenodeoxycholic acid, CDCA) or a low control (DMSO/vehicle). The dose response curves are generated from an 8 point curve with concentrations differing by 1/2 LOG units. Each point represents the average of 4 wells of data from a 384 well plate. The curve for the data is generated by using the equation: Y=Bottom+(Top−Bottom)/(1+10^((Log EC50−X)*HillSlope))
The EC50/IC50 is therefore defined as the concentration at which an agonist or antagonist elicits a response that is half way between the Top (maximum) and Bottom (baseline) values. The EC50/IC50 values represented are the averages of at least 3 independent experiments. The determination of the relative efficacy or % control for an agonist is by comparison to the maximum response achieved by chenodeoxycholic acid that is measured individually in each dose response experiment.
For the antagonist assay, CDCA is added to each well of a 384 well plate to elicit a response. The % inhibition for each antagonist is therefore a measurement of the inhibition of the activity of CDCA. In this example, 100% inhibition would indicate that the activity of CDCA has been reduced to baseline levels, defined as the activity of the assay in the presence of DMSO only.

COc1ccc(-n2c(C(C)N(C)S(=O)(=O)c3ccc(C(C)(C)C)cc3)nc3ccc(OC)cc3c2=O)cc1 (stereo not shown) [4-tert-butyl-N-{1-[6-methoxy-3-(4-methoxyphenyl)-4-oxo-3,4-dihydroquinazolin-2-yl]ethyl}-N-methylbenzenesulfonamide]
EC50: ~300 nM
Emax: ~190%

Cc1ccc(-n2c(C(C)N(C)S(=O)(=O)c3ccc(C(C)(C)C)cc3)nc3ccc(-c4cccs4)cc3c2=O)cc1 (stereo not shown)
EC50: ~600 nM
Emax: ~110%
